In ChEMBL document CHEMBL5385875, “Tumor killing by a dietary curcumin mono-carbonyl analog that works as a selective ROS generator via TrxR inhibition” (Eur J Med Chem, 2023):
Active and inactive are the calls of the source. No cut-off for these calls is given here.

Tests used:
NCI-H460 [1] = test: Cytotoxicity against human NCI-H460 cells assessed as reduction in cell viability at 0.5 to 1 uM measured after 48 hrs in presence of necrostatin-1 by MTT assay; format: functional, cell-based; settings: dose 0.5-1 µM
NCI-H460 [2] = test: Cytotoxicity against human NCI-H460 cells assessed as reduction in cell viability incubated for 48 hrs by MTT assay; format: functional, cell-based; settings: NCI-H460, 48 h
NCI-H460 [3] = test: Induction of ferroptosis in human NCI-H460 cells assessed as reduction in GPX4 protein expression at 1 to 2 uM measured after 24 hrs in presence of NAC by immunoblot analysis; format: functional, cell-based; settings: dose 1-2 µM
[4] = Toxicity in BALB/c nude mouse assessed as effect on body weight at 5 to 15 mg/kg, ip measured every two days for 27 days; format: organism-based; settings: in vivo, 648 h, dose 5-15 mg/kg, time 27 day
NCI-H460 [5] = test: Induction of ferroptosis in human NCI-H460 cells assessed as reduction in GPX4 protein expression measured after 24 hrs by immunoblot analysis; format: functional, cell-based; settings: dose 1-2 µM
[6] = Toxicity in BALB/c nude mouse assessed as effect on liver at 5 to 15 mg/kg, ip measured every two days for 27 days by H and E staining based analysis; format: organism-based; settings: in vivo, 648 h, dose 5-15 mg/kg, time 27 day
NCI-H460 [7] = test: Induction of ferroptosis in human NCI-H460 cells assessed as increase in MDA levels at 2 uM measured after 40 hrs in presence of Fer-1 by MDA assay; format: functional, cell-based
NCI-H460 [8] = test: Cytotoxicity against human NCI-H460 cells assessed as reduction in cell viability at 0.5 to 2 uM incubated for 48 hrs in presence of BSO by MTT assay; format: functional, cell-based; settings: dose 0.5-2 µM
NCI-H460 [9] = test: Induction of ROS accumulation in human NCI-H460 cells assessed as reduction in GSH levels by measuring yellow green fluorescence incubated for 9 hrs by fluorescence microscope based analysis; format: functional, cell-based
NCI-H460 [10] = test: Induction of ferroptosis in human NCI-H460 cells assessed as increase in MDA levels at 2 uM measured after 40 hrs in presence of VE by MDA assay; format: functional, cell-based
[11] = Toxicity in BALB/c nude mouse assessed as effect on kidney at 5 to 15 mg/kg, ip measured every two days for 27 days by H and E staining based analysis; format: organism-based; settings: in vivo, 648 h, dose 5-15 mg/kg, time 27 day
NCI-H460 [12] = test: Antitumor activity against human NCI-H460 cells xenografted in BALB/c nude mouse assessed as inhibition of tumor formation administered as IP dose and measured every two days for 27 days; format: functional; settings: dose 5-15 mg/kg, time 27.0 day
NCI-H460 [13] = test: Antitumor activity against human NCI-H460 cells xenografted in BALB/c nude mouse assessed as downregulation of GPX4 expression at 5 to 15 mg/kg by immunohistochemical staining based analysis; format: functional, organism-based; settings: dose 5-15 mg/kg
NCI-H460 [14] = test: Induction of ferroptosis in human NCI-H460 cells assessed as increase in intracellular […] by measuring increase in red fluorescence intensity at 0.5 uM incubated for 40 hrs in presence of NAC by C11-BODIPY staining based microscopy analysis; format: functional, cell-based
NCI-H460 [15] = test: Induction of intracellular ROS accumulation in human NCI-H460 cells at 1 to 2 uM measured after 6 hrs in presence of NAC by DCFH-DA dye based fluorescence assay; format: functional, cell-based; settings: dose 1-2 µM
NCI-H460 [16] = test: Downregulation of Bcl-2 expression in human NCI-H460 cells at 1 to 2 uM measured after 48 hrs in presence of NAC by immunoblot analysis; format: functional, cell-based; settings: dose 1-2 µM
[17] = Toxicity in BALB/c nude mouse assessed as effect on hair colour at 5 to 15 mg/kg, ip measured every two days for 27 days; format: organism-based; settings: in vivo, 648 h, dose 5-15 mg/kg, time 27 day
[18] = Selectivity index, ratio of IC50 for human MRC5 cells to IC50 for human NCI-H460 cells; format: toxicity; settings: MRC5 cells versus NCI-H460 cells, read-out: Ratio IC50
NCI-H460 [19] = test: Induction of apoptosis in human NCI-H460 cells assessed as reduction of mitochondrial membrane potential at 0.5 to 2 uM incubated for 12 to 36 hrs in presence of NAC by JC-1 staining based flow cytometry analysis; format: functional, cell-based; settings: dose 0.5-2 µM, time 12-36 hrs
[20] = target: T1, Thioredoxin reductase (Homo sapiens) (UniProt Q16881+Q9NNW7+Q86VQ6); test: Inhibition of TrxR in human NCI-H460 cells measured after 6 hrs by DTNB reduction assay relative to control; format: cell-based; settings: dose 0.5-2 µM
[21] = target: T1, Thioredoxin reductase (Homo sapiens); test: Inhibition of TrxR in human MRC5 cells at 2 uM measured after 6 hrs by fluorescence microscopy based analysis; format: cell-based
NCI-H460 [22] = test: Induction of ferroptosis in human NCI-H460 cells assessed as increase in MDA levels at 2 uM measured after 40 hrs in presence of erastin by MDA assay; format: functional, cell-based
[23] = Toxicity in BALB/c nude mouse assessed as effect on lung at 5 to 15 mg/kg, ip measured every two days for 27 days; format: organism-based; settings: in vivo, 648 h, dose 5-15 mg/kg, time 27 day
NCI-H460 [24] = test: Antitumor activity against human NCI-H460 cells xenografted in BALB/c nude mouse assessed as induction of apoptosis at 5 to 15 mg/kg by H and E staining based analysis; format: functional, organism-based; settings: dose 5-15 mg/kg
NCI-H460 [25] = test: Cytotoxicity against human NCI-H460 cells assessed as reduction in cell viability at 0.5 to 2 uM incubated for 48 hrs in presence of N-acetylcysteine by MTT assay; format: functional, cell-based; settings: dose 0.5-2 µM
HT-1080 = test: Cytotoxicity against human HT-1080 cells assessed as reduction in cell viability incubated for 48 hrs by MTT assay; format: functional, cell-based; settings: HT-1080, 48 h
NCI-H460 [26] = test: Upregulation of caspase-3 activation in human NCI-H460 cells at 1 to 2 uM measured after 48 hrs by immunoblot analysis; format: functional, cell-based; settings: dose 1-2 µM
[27] = Cytotoxicity against human MRC5 cells assessed as reduction in cell viability incubated for 48 hrs by MTT assay; format: toxicity, cell-based
[28] = target: T1, Thioredoxin reductase (Homo sapiens); test: Inhibition of TrxR in human NCI-H460 cells at 2 uM measured after 6 hrs by DTNB reduction assay relative to control; format: cell-based

SMILES: O=C1/C(=C/c2cccc(C(F)(F)F)c2)CNC/C1=C\c1cccc(C(F)(F)F)c1
- Activity (NCI-H460 [1]): inactive
- IC50 (NCI-H460 [2]): 440 nM
- Activity (NCI-H460 [3]): inactive
- Activity [4]: Non-Toxic
- Activity (NCI-H460 [5]): Dose-Dependent Effect
- Activity [6]: Non-Toxic
- Activity (NCI-H460 [7]): inactive
- Activity (NCI-H460 [8]): Active
- Activity (NCI-H460 [9]): Dose-Dependent Effect
- Activity (NCI-H460 [10]): inactive
- Activity [11]: Non-Toxic
- Activity (NCI-H460 [12]): Dose-Dependent Effect
- Activity (NCI-H460 [13]): Active
- Activity (NCI-H460 [14]): inactive
- Activity (NCI-H460 [15]): inactive
- Activity (NCI-H460 [16]): inactive
- Activity [17]: Non-Toxic
- selectivity ratio [18]: 32
- Activity (NCI-H460 [19]): inactive
- inhibition [20]: Dose-Dependent Effect
- inhibition [21]: inactive
- Activity (NCI-H460 [22]): Active
- Activity [23]: Non-Toxic
- Activity (NCI-H460 [24]): Active
- Activity (NCI-H460 [25]): inactive
- IC50 (HT-1080): 930 nM
- Activity (NCI-H460 [26]): Active
- IC50 at 48 h [27]: 14100 nM
- inhibition [28]: 59%
